Key:
[1] = test system: two-spotted mite (Tetranychus urticae (Koch)), adults and nymphal stages; experiment: Mite Foliage Spray Test (adult miticidal); format: in vivo; design: key to Miticidal, Adult (control rating): A: Excellent Control; B: Partial Control; No Control; settings: Table I; mortality count four days after spraying
Description: (§1) Suspensions of the test compounds were prepared by dissolving one gram of compound in 50 milliliters of acetone in which had been dissolved 0.1 gram (10 percent of the weight of compound) of an alkylphenoxyethoxyethanol surfactant, as an emulsifying or dispersing agent. The resulting solution was mixed into 160 milliliters of water to give roughly 200 milliliters of a suspension containing the compound in finely divided form. The thus prepared stock suspension contained 0.5 percent by weight of compound. The test concentrations employed in the tests described herein below were obtained by diluting the stock suspension with water. The test procedures were as follows:
Adults and nymphal stages of the two-spotted mite (Tetranychus urticae (Koch)), reared on Tendergreen bean plants at 80°±5° F. and 50±5 percent relative humidity, were the test organisms. Infested leaves from a stock culture were placed on the primary leaves of two bean plants six to eight inches in height, growing in a two-and-a-half inch clay pot. 150-200 Mites, a sufficient number for testing, transferred from the excised leaves to the fresh plants in a period of twenty-four hours. Following the twenty-four hour transfer period, the excised leaves were removed from the infested plants. The test compounds were formulated by diluting the stock suspension with water to provide suspensions containing the desired amount of test compound per million parts of final formulation. The potted plants (one pot per compound) were placed on a revolving turntable and sprayed with 100-110 milliliters of test compound formulation by use of a DeVilbis spray gun set at 40 psi. air pressure. This application, which lasted 30 seconds, was sufficient to wet the plants to run-off. As a control, 100-110 milliliters of a water solution containing acetone and emulsifier in the same concentrations as the test compound formulation, but containing no test compound, were also sprayed on infested plants. The sprayed plants were held at 80°±5° F. and 50±5 percent relative humidity for four days, after which, a mortality count of motile forms was made on the leaves of the test plants. Any individual which was capable of locomotion upon prodding was considered living.
(§2) In these tests the pesticidal activity of the compounds against mites and mite eggs were rated as follows:
(§3) Tests were conducted in accordance with the procedures given at pages 32 to 37 supra. The results are expressed in the same manner as used in Table I, except with respect to miticidal activity. For mite adult and mite egg comparison purposes, results are given in parts per million (ppm) required for a 50 percent kill of mites or eggs, respectively.

[2] = test system: egg of the two-spotted mite (Tetranychus urticae (Koch)); experiment: Mite Ovicide Test (egg); format: in vivo; design: key to Miticidal, Egg (control rating): A: Excellent Control; B: Partial Control; No Control; settings: Table I; unhatched/hatched eggs four days after spraying
Description: as §1
The test organism was the egg of the two-spotted mite (Tetranychus urticae (Koch)), as obtained from adults reared on Tendergreen bean plants under controlled conditions of 80°±5° F. and 50±5 percent relative humidity. Heavily infested leaves from a stock culture were placed on the primary leaves of two bean plants six to eight inches in height growing in a two-and-a-half inch clay pot. Females were allowed to oviposit for a period of 48 hours and then the leaves of the infested plants were dipped in a solution containing 800 parts of tetraethyl pyrophosphate per million parts of water in order to destroy the reproductory forms and thus prevent further egg laying. […] The plants were allowed to dry thoroughly. The test compounds were formulated by diluting the stock suspension with water to give a suspension containing varying amounts of test compound per million parts of final formulation. The potted plants (one pot per compound) were placed on a revolving turntable and sprayed with 100-110 milliliters of test compound formulation by use of a DeVilbis spray gun set at 40 spig. air pressure. This application which lasted 30 seconds, was sufficient to wet the plants to run-off. As a control, 100-110 milliliters of a water solution containing acetone and emulsifier in the same concentrations as the test compound formulation, but containing no test compound, were also sprayed on plants infested with eggs. The sprayed plants were held at 80°±5° F. and 50±5 percent relative humidity for four days, after which a microscopic examination was made of unhatched (dead) and hatched (living) eggs.
as §2, §3

O=C1C(c2ccc(Cl)cc2Cl)C(=O)C2CC=CCC12 (centres unmarked) [Cl Cl H (CH2 CHCHCH2), 8-(2',4'-dichlorophenyl)bicyclo[4.3.0]non-3-en-7,9-dione]
Miticidal, Adult (control rating) [1]: A
Miticidal, Egg (control rating) [2]: A

From patent publication US4338122A, “Biocidal 2-aryl-1,3-cyclopentanedione compounds and alkali metal and ammonium salts thereof” (Union Carbide Corporation, priority 1980, dated 1982)
